Assay results as given in article PMC8991960, “A Bivalent Activatable Fluorescent Probe for Screening and Intravital Imaging of Chemotherapy‐Induced Cancer Cell Death” (Angewandte Chemie (International Ed. in English), 2021).

System: breast cancer cells (MMTV-PyMT, MDA-MB231, MCF7)
Test: Dose-dependency study with Apotracker Red and CellTrace Violet
Assay type: cell-based, mouse and human
Details: 1 to 100 µM
Description: First, all drugs were tested in the 8 different cell lines to determine the percentages of Apotracker Red‐stained apoptotic cells compared to no treatment (Figure 3 c; Figure S8). […] From this screen, we decided to select 5 drugs with potent pro‐apoptotic response in breast cancer, the most diagnosed cancer worldwide.[25] […] From group 2, we selected cyclophosphamide, tamoxifen, and 5‐fluorouracil as pro‐apoptotic molecules. […] All 5 drugs were tested at multiple concentrations (from 1 to 100 μM) and with incubation times up to 48 h to examine whether drugs could block cell proliferation at late stages (Figures S9–S13).
Figure 4 Apotracker Red detects dose‐dependent chemotherapeutic‐induced apoptosis in mouse and human breast cancer cell lines. Cells were plated with 1 μM CV, treated with increasing concentrations (0, 1, 3, 10, 30 and 100 μM) of selected drugs for 48 h, and stained with Apotracker Red (150 nM) before data acquisition. Drugs: tamoxifen (beige), cisplatin (black), 5‐fluorouracil (green), gemcitabine (pink) and cyclophosphamide (red). Data presented as mean±SEM of 3 independent experiments.
Figure S9. Flow cytometry analysis of cisplatin in different breast cancer cell lines.
Representative flow cytometric plots (from three independent experiments) of MMTV-PyMT cells (a), MDA-MB231 cells (b) and MCF7 cells (c) after treatment with increasing concentrations of cisplatin for 48 h. Cells were stained on day 0 with CellTraceTM Violet (1 µ M) and with Apotracker Red (150 nM) before data acquisition.
(1 picture or pasted object on this page, not shown here)
Edinburgh. Human peripheral blood neutrophils were isolated as previously described.[3] […]
were centrifuged (300 g, 5 min, r.t.), washed once with PBS before addition of 0.05% Trypsin, 0.02% ethylenediaminetetraacetic acid (EDTA) in Hank’s balanced salt solution (HBSS) and incubation at 37°C for 5 min. […] Histograms and mean fluorescence intensities of […]

Structure (SMILES): N.N.[Cl][Pt][Cl] [cisplatin]
- Percentages of Apotracker Red staining, dose-dependency study (48 h, Apotracker Red 150 nM, 3 independent experiments): highest percentages of Apotracker Red staining across all breast cancer cells
- Ratios of proliferation blockage, dose-dependency study (up to 48 h, CellTrace Violet 1 µM): highest ratios of proliferation blockage
